Laboratory results as given in publication PMC5218480 (PLoS ONE, 2017).

Test system: MV-4-11 cells
Test: Gene expression microarray analysis (Affymetrix PrimeView) and GSEA
Type: cell-based, human
Design: RFU PODN (11730768_x_at) / Fold change /veh PODN (11730768_x_at) / RFU LINC00158 (11744669_a_at) / Fold change /veh LINC00158 (11744669_a_at) / RFU DUSP10 (11751237_a_at) / Fold change /veh DUSP10 (11751237_a_at) / RFU ID3 (11757404_x_at) / Fold change /veh ID3 (11757404_x_at) / RFU PLEKHG5 (11737974_s_at) / Fold change /veh PLEKHG5 (11737974_s_at) / RFU LRRC4B (11730491_at) / Fold change /veh LRRC4B (11730491_at) / RFU GIMAP4 (11747438_a_at) / Fold change /veh GIMAP4 (11747438_a_at) / RFU KRT8 (11758183_x_at) / Fold change /veh KRT8 (11758183_x_at) / RFU CNN1 (11734310_a_at) / Fold change /veh CNN1 (11734310_a_at) / RFU VPS37D (11726825_at) / Fold change /veh VPS37D (11726825_at) / RFU C10orf10 (11716522_x_at) / Fold change /veh C10orf10 (11716522_x_at) / RFU KIR2DL2 /// KIR2DL4 /// KIR2DL5A /// KIR2DL5B /// KIR2DS1 /// KIR2DS2 /// KIR2DS3 /// KIR2DS4 /// KIR3DL3 /// KIR3DL3 /// KIR3DS1 (11738374_at) / Fold change /veh KIR2DL2 /// KIR2DL4 /// KIR2DL5A /// KIR2DL5B /// KIR2DS1 /// KIR2DS2 /// KIR2DS3 /// KIR2DS4 /// KIR3DL3 /// KIR3DL3 /// KIR3DS1 (11738374_at) / RFU C1QL1 (11718748_at) / Fold change /veh C1QL1 (11718748_at) / RFU TMPRSS4 (11747572_a_at) / Fold change /veh TMPRSS4 (11747572_a_at) / RFU HAMP (11756126_x_at) / Fold change /veh HAMP (11756126_x_at) / RFU RNFT2 (11725882_a_at) / Fold change /veh RNFT2 (11725882_a_at) / RFU NR4A2 (11747474_a_at) / Fold change /veh NR4A2 (11747474_a_at) / RFU ABCC12 (11746883_a_at) / Fold change /veh ABCC12 (11746883_a_at) / RFU TMEM136 (11760407_x_at) / Fold change /veh TMEM136 (11760407_x_at) / RFU CLDN22 /// WWC2 (11732394_at) / Fold change /veh CLDN22 /// WWC2 (11732394_at) / RFU HLA-DPB1 (11760878_x_at) / Fold change /veh HLA-DPB1 (11760878_x_at) / RFU SPINT1 (11716480_a_at) / Fold change /veh SPINT1 (11716480_a_at) / RFU GAP43 (11754022_s_at) / Fold change /veh GAP43 (11754022_s_at) / RFU A4GNT (11735810_at) / Fold change /veh A4GNT (11735810_at) / RFU PRB3 (11715151_x_at) / Fold change /veh PRB3 (11715151_x_at) / RFU TUBB4B (11761932_at) / Fold change /veh TUBB4B (11761932_at) / RFU CAPN14 (11732068_a_at) / Fold change /veh CAPN14 (11732068_a_at) / RFU TMCC2 (11721928_a_at) / Fold change /veh TMCC2 (11721928_a_at) / RFU IRGQ (11745062_a_at) / Fold change /veh IRGQ (11745062_a_at) / RFU FAM174B (11720279_a_at) / Fold change /veh FAM174B (11720279_a_at) / RFU TMPRSS4 (11748680_a_at) / Fold change /veh TMPRSS4 (11748680_a_at) / RFU FAM212B (11763350_a_at) / Fold change /veh FAM212B (11763350_a_at) / RFU PLEKHG5 (11743358_a_at) / Fold change /veh PLEKHG5 (11743358_a_at) / RFU ZSCAN30 (11745921_a_at) / Fold change /veh ZSCAN30 (11745921_a_at) / RFU CMKLR1 (11741424_a_at) / Fold change /veh CMKLR1 (11741424_a_at) / RFU LOC101060620 /// MAPK8IP1 (11723275_at) / Fold change /veh LOC101060620 /// MAPK8IP1 (11723275_at) / RFU SPTSSB (11747773_x_at) / Fold change /veh SPTSSB (11747773_x_at) / RFU PRSS12 (11739890_at) / Fold change /veh PRSS12 (11739890_at) / RFU BIN1 (11741810_x_at) / Fold change /veh BIN1 (11741810_x_at) / RFU WNT11 (11732464_a_at) / Fold change /veh WNT11 (11732464_a_at) / RFU C10orf10 (11716521_a_at) / Fold change /veh C10orf10 (11716521_a_at) / RFU C5orf56 (11738089_at) / Fold change /veh C5orf56 (11738089_at) / RFU CYB561 (11721691_x_at) / Fold change /veh CYB561 (11721691_x_at) / RFU ANKRD19P (11752326_a_at) / Fold change /veh ANKRD19P (11752326_a_at) / RFU OR2T12 /// OR2T33 /// OR2T8 (11738714_s_at) / Fold change /veh OR2T12 /// OR2T33 /// OR2T8 (11738714_s_at) / RFU VCAN (11748164_a_at) / Fold change /veh VCAN (11748164_a_at) / RFU JSRP1 (11732532_at) / Fold change /veh JSRP1 (11732532_at) / RFU KRTAP10-11 (11738290_x_at) / Fold change /veh KRTAP10-11 (11738290_x_at) / RFU MYO3A (11730013_a_at) / Fold change /veh MYO3A (11730013_a_at) / RFU EBF3 (11725865_a_at) / Fold change /veh EBF3 (11725865_a_at) / RFU CAMK2N1 (11719241_x_at) / Fold change /veh CAMK2N1 (11719241_x_at) / RFU C5orf56 (11738088_a_at) / Fold change /veh C5orf56 (11738088_a_at) / RFU OLFML3 (11715873_a_at) / Fold change /veh OLFML3 (11715873_a_at) / RFU LOC100653217 /// NTM (11731650_a_at) / Fold change /veh LOC100653217 /// NTM (11731650_a_at) / RFU MAPK11 (11762145_a_at) / Fold change /veh MAPK11 (11762145_a_at) / RFU FIZ1 (11724087_x_at) / Fold change /veh FIZ1 (11724087_x_at) / RFU OASL (11726364_x_at) / Fold change /veh OASL (11726364_x_at) / RFU SOX15 (11748057_x_at) / Fold change /veh SOX15 (11748057_x_at) / RFU CD79A (11719716_a_at) / Fold change /veh CD79A (11719716_a_at) / RFU HIST1H1D (11736915_at) / Fold change /veh HIST1H1D (11736915_at) / RFU CASKIN2 (11723855_a_at) / Fold change /veh CASKIN2 (11723855_a_at) / RFU LOC730098 (11760151_x_at) / Fold change /veh LOC730098 (11760151_x_at) / RFU OR4N2 (11742367_at) / Fold change /veh OR4N2 (11742367_at) / RFU PRRT2 (11749266_a_at) / Fold change /veh PRRT2 (11749266_a_at) / RFU SNX32 (11753110_a_at) / Fold change /veh SNX32 (11753110_a_at) / RFU CDHR5 (11726645_a_at) / Fold change /veh CDHR5 (11726645_a_at) / RFU RCAN1 (11760418_a_at) / Fold change /veh RCAN1 (11760418_a_at) / RFU FAM167A (11723789_a_at) / Fold change /veh FAM167A (11723789_a_at) / RFU FAM26E (11764081_at) / Fold change /veh FAM26E (11764081_at) / RFU ISYNA1 (11749810_s_at) / Fold change /veh ISYNA1 (11749810_s_at) / RFU ACY1 (11761880_at) / Fold change /veh ACY1 (11761880_at) / RFU 11764098_at / Fold change /veh 11764098_at / RFU SAMD14 (11745864_x_at) / Fold change /veh SAMD14 (11745864_x_at) / RFU NPB (11741838_a_at) / Fold change /veh NPB (11741838_a_at) / RFU TMPRSS6 (11731388_a_at) / Fold change /veh TMPRSS6 (11731388_a_at) / RFU KRTAP10-2 (11738614_at) / Fold change /veh KRTAP10-2 (11738614_at) / RFU ARHGAP8 /// PRR5-ARHGAP8 (11727945_x_at) / Fold change /veh ARHGAP8 /// PRR5-ARHGAP8 (11727945_x_at) / RFU KRTAP5-7 /// NADSYN1 (11734609_at) / Fold change /veh KRTAP5-7 /// NADSYN1 (11734609_at) / RFU RASL12 (11751679_a_at) / Fold change /veh RASL12 (11751679_a_at) / RFU CDKN2B (11736163_a_at) / Fold change /veh CDKN2B (11736163_a_at) / RFU PRF1 (11729649_at) / Fold change /veh PRF1 (11729649_at) / RFU, ZNF638 /// ZNF638-IT1 / Fold change vs veh, ZNF638 /// ZNF638-IT1 / RFU, PANK3 / Fold change vs veh, PANK3 / RFU, SH3YL1 / Fold change vs veh, SH3YL1 / RFU, ZEB2 / Fold change vs veh, ZEB2 / RFU, NRIP1 / Fold change vs veh, NRIP1 / RFU, PTTG1IP / Fold change vs veh, PTTG1IP / RFU, CAPN2 / Fold change vs veh, CAPN2 / RFU, MED14 / Fold change vs veh, MED14 / RFU, SNORA58 / Fold change vs veh, SNORA58 / RFU, C1orf63 / Fold change vs veh, C1orf63 / RFU, LRRFIP1 / Fold change vs veh, LRRFIP1 / RFU, NDUFAF7 / Fold change vs veh, NDUFAF7 / RFU, SLC12A2 / Fold change vs veh, SLC12A2 / RFU, IBTK / Fold change vs veh, IBTK / RFU, ESF1 / Fold change vs veh, ESF1 / Fold change vs veh, TMEM50B / RFU, TAOK1 / Fold change vs veh, TAOK1 / RFU, ACBD3 / Fold change vs veh, ACBD3 / RFU, TMA16 / Fold change vs veh, TMA16 / RFU, RWDD3 / Fold change vs veh, RWDD3 / RFU, BCAT1 / Fold change vs veh, BCAT1 / RFU, EDEM3 / Fold change vs veh, EDEM3 / RFU, TMEM33 / Fold change vs veh, TMEM33 / RFU, WDR75 / Fold change vs veh, WDR75 / RFU, AHCTF1 / Fold change vs veh, AHCTF1 / RFU, TFRC / Fold change vs veh, TFRC / RFU, ZDHHC17 / Fold change vs veh, ZDHHC17 / RFU, NOM1 / Fold change vs veh, NOM1 / RFU, ARL8B / Fold change vs veh, ARL8B / RFU, ZBTB11 / Fold change vs veh, ZBTB11 / RFU, TAMM41 / Fold change vs veh, TAMM41 / RFU, KIAA1704 /// LOC100996395 / Fold change vs veh, KIAA1704 /// LOC100996395 / RFU, ING1 / Fold change vs veh, ING1 / RFU, TRMT61B / Fold change vs veh, TRMT61B / RFU, FUBP3 / Fold change vs veh, FUBP3 / RFU, TP53 / Fold change vs veh, TP53 / RFU, TNKS2 / Fold change vs veh, TNKS2 / RFU, ZFP14 / Fold change vs veh, ZFP14 / RFU, ACTR2 / Fold change vs veh, ACTR2 / RFU, PPP3R1 / Fold change vs veh, PPP3R1 / RFU, PIK3R1 / Fold change vs veh, PIK3R1 / RFU, HNRNPA1 / Fold change vs veh, HNRNPA1 / RFU, RNF170 / Fold change vs veh, RNF170 / RFU, ZNF28 / Fold change vs veh, ZNF28 / RFU, RNGTT / Fold change vs veh, RNGTT / RFU, OGT / Fold change vs veh, OGT / RFU, BRD1 / Fold change vs veh, BRD1 / RFU, MARS / Fold change vs veh, MARS / RFU, ZNF655 / Fold change vs veh, ZNF655 / RFU, FAHD1 / Fold change vs veh, FAHD1 / RFU, BDP1 / Fold change vs veh, BDP1 / RFU, LRRCC1 / Fold change vs veh, LRRCC1 / RFU, ARID1A / Fold change vs veh, ARID1A / RFU, ZNF146 / Fold change vs veh, ZNF146 / RFU, ZNF330 / Fold change vs veh, ZNF330 / RFU, GPN3 / Fold change vs veh, GPN3 / RFU, C9orf123 / Fold change vs veh, C9orf123 / RFU, N4BP2L2 / Fold change vs veh, N4BP2L2 / RFU, ARFIP1 / Fold change vs veh, ARFIP1 / RFU, FAM179B / Fold change vs veh, FAM179B / RFU, BCL10 / Fold change vs veh, BCL10 / RFU, UHRF1BP1L / Fold change vs veh, UHRF1BP1L / RFU, BET1 / Fold change vs veh, BET1 / RFU, CNOT2 / Fold change vs veh, CNOT2 / RFU, ZNF268 / Fold change vs veh, ZNF268 / Fold change vs veh, ZNF507 / RFU, DGCR2 / Fold change vs veh, DGCR2 / RFU, WDSUB1 / Fold change vs veh, WDSUB1 / Fold change vs veh, HSP90B1 /// MIR3652 / RFU, ADSS / Fold change vs veh, ADSS / RFU, GK / Fold change vs veh, GK / RFU, ZNF148 / Fold change vs veh, ZNF148 / RFU, TAF9 / Fold change vs veh, TAF9 / RFU, SLC1A5 / Fold change vs veh, SLC1A5 / RFU, SLMO2 / Fold change vs veh, SLMO2 / RFU, ABCC4 / Fold change vs veh, ABCC4 / RFU, LOC101060439 /// RAP1B / Fold change vs veh, LOC101060439 /// RAP1B / RFU, RFX7 / Fold change vs veh, RFX7 / RFU, GTPBP10 / Fold change vs veh, GTPBP10 / RFU, CNEP1R1 / Fold change vs veh, CNEP1R1 / RFU, BIVM-ERCC5 /// ERCC5 / Fold change vs veh, BIVM-ERCC5 /// ERCC5 / RFU, ILF3 / Fold change vs veh, ILF3 / RFU 11762660_at / Fold change /veh 11762660_at / RFU VCAN (11757783_s_at) / Fold change /veh VCAN (11757783_s_at) / RFU DDX43 (11728927_at) / Fold change /veh DDX43 (11728927_at) / RFU KRT8 (11758188_x_at) / Fold change /veh KRT8 (11758188_x_at) / RFU NKD1 (11759106_at) / Fold change /veh NKD1 (11759106_at) / RFU SRD5A1 (11742802_a_at) / Fold change /veh SRD5A1 (11742802_a_at) / RFU TPSAB1 /// TPSB2 (11721975_s_at) / Fold change /veh TPSAB1 /// TPSB2 (11721975_s_at) / RFU GSTM3 (11746129_a_at) / Fold change /veh GSTM3 (11746129_a_at) / RFU IL23R (11737362_x_at) / Fold change /veh IL23R (11737362_x_at) / RFU TMEM51 (11727254_a_at) / Fold change /veh TMEM51 (11727254_a_at) / RFU PIWIL2 (11732686_x_at) / Fold change /veh PIWIL2 (11732686_x_at) / RFU ORM1 (11744905_x_at) / Fold change /veh ORM1 (11744905_x_at) / RFU CCDC152 (11743942_at) / Fold change /veh CCDC152 (11743942_at) / RFU ECM1 (11717891_a_at) / Fold change /veh ECM1 (11717891_a_at) / RFU IL23R (11748794_a_at) / Fold change /veh IL23R (11748794_a_at) / RFU TNFAIP8L3 (11732012_x_at) / Fold change /veh TNFAIP8L3 (11732012_x_at) / RFU MBOAT4 (11741988_at) / Fold change /veh MBOAT4 (11741988_at) / RFU 11764193_at / Fold change /veh 11764193_at / RFU TMEM53 (11763286_at) / Fold change /veh TMEM53 (11763286_at) / RFU MAGEB2 (11727129_at) / Fold change /veh MAGEB2 (11727129_at) / RFU TMEM200A (11744735_a_at) / Fold change /veh TMEM200A (11744735_a_at) / RFU CCDC152 (11751479_a_at) / Fold change /veh CCDC152 (11751479_a_at) / RFU FAM211A (11726209_a_at) / Fold change /veh FAM211A (11726209_a_at) / RFU RGS16 (11746705_a_at) / Fold change /veh RGS16 (11746705_a_at) / RFU VCAN (11755009_s_at) / Fold change /veh VCAN (11755009_s_at) / RFU RHOB (11743442_s_at) / Fold change /veh RHOB (11743442_s_at) / RFU RGS16 (11720943_a_at) / Fold change /veh RGS16 (11720943_a_at) / RFU RGS16 (11720944_at) / Fold change /veh RGS16 (11720944_at) / RFU, VPS4B / Fold change vs veh, VPS4B / RFU, CREB1 / Fold change vs veh, CREB1 / RFU, DNAJC13 / Fold change vs veh, DNAJC13 / RFU, GNAQ / Fold change vs veh, GNAQ / RFU, CDK5R1 / Fold change vs veh, CDK5R1 / RFU, ZRANB3 / Fold change vs veh, ZRANB3 / RFU, CUL4A / Fold change vs veh, CUL4A / RFU, CCNY / Fold change vs veh, CCNY / RFU, UFL1 / Fold change vs veh, UFL1 / RFU, COG3 / Fold change vs veh, COG3 / RFU, DIAPH2 / Fold change vs veh, DIAPH2 / RFU, SKA2 / Fold change vs veh, SKA2 / RFU, AFF3 / Fold change vs veh, AFF3 / RFU, LMF1 / Fold change vs veh, LMF1 / RFU, IPO11 / Fold change vs veh, IPO11 / RFU, DFFB / Fold change vs veh, DFFB / RFU, FOXP1 / Fold change vs veh, FOXP1 / RFU, CARD8 / Fold change vs veh, CARD8 / RFU, STRN3 / Fold change vs veh, STRN3 / RFU, ADK / Fold change vs veh, ADK / RFU, RASSF2 / Fold change vs veh, RASSF2 / RFU, WIPF1 / Fold change vs veh, WIPF1 / RFU, LARP1B / Fold change vs veh, LARP1B / RFU, RASA1 / Fold change vs veh, RASA1 / RFU, RB1 / Fold change vs veh, RB1 / RFU, PPFIA1 / Fold change vs veh, PPFIA1 / RFU, MAT2A / Fold change vs veh, MAT2A / RFU, CCT5 / Fold change vs veh, CCT5 / RFU, WDR92 / Fold change vs veh, WDR92 / RFU, CUX1 / Fold change vs veh, CUX1 / RFU, TTC7A / Fold change vs veh, TTC7A / RFU, TMEM135 / Fold change vs veh, TMEM135 / RFU, DEPTOR / Fold change vs veh, DEPTOR / RFU, CPM / Fold change vs veh, CPM / RFU, DNAJB6 / Fold change vs veh, DNAJB6 / RFU, CACNA2D3 / Fold change vs veh, CACNA2D3 / RFU, DTX4 / Fold change vs veh, DTX4 / RFU, TFCP2 / Fold change vs veh, TFCP2 / RFU, GMCL1 /// GMCL1P1 / Fold change vs veh, GMCL1 /// GMCL1P1 / RFU, AEBP2 / Fold change vs veh, AEBP2 / RFU, SNHG1 /// SNORD22 /// SNORD25 /// SNORD26 /// SNORD27 /// SNORD28 /// SNORD29 /// SNORD31 / Fold change vs veh, SNHG1 /// SNORD22 /// SNORD25 /// SNORD26 /// SNORD27 /// SNORD28 /// SNORD29 /// SNORD31 / Fold change (Aza/veh), C12orf56 (ProbeSet 11735607_a_at) / Fold change (ACY-1035/veh), C12orf56 (ProbeSet 11735607_a_at) / Fold change (Aza/veh), FGFR1OP (ProbeSet 11751329_s_at) / Fold change (ACY-1035/veh), FGFR1OP (ProbeSet 11751329_s_at) / Fold change (Aza/veh), VPS36 (ProbeSet 11739960_a_at) / Fold change (ACY-1035/veh), VPS36 (ProbeSet 11739960_a_at) / RFU SYPL1 (11715823_x_at) / Fold change /veh SYPL1 (11715823_x_at) / RFU IGFBP7 (11715501_s_at) / Fold change /veh IGFBP7 (11715501_s_at) / RFU REEP3 (11722064_at) / Fold change /veh REEP3 (11722064_at) / RFU IGLL1 (11728026_x_at) / Fold change /veh IGLL1 (11728026_x_at): dose or concentration left out as unconfirmed
Settings: MV-4-11 cells, 48 hours

Compound: Nc1ccc(-c2cccs2)cc1NC(=O)c1ccc2c(c1)cc(C1CC1)n2CCN1CCOCC1 [ACY-1035]
- RFU CAMK2N1 (11719241_x_at): 51.25 RFU
